From patent US20230405078A1, “DETECTION AND TREATMENT OF INTESTINAL FIBROSIS” (THE REGENTS OF THE UNIVERSITY OF CALIFORNIA, priority 2020, published 2023)
Where no end group is shown, it is not given here.

Tested on: ERK1/2 phosphorylation
Assay: Phospho-ERK1/2 ELISA in CCD-18Co fibroblasts
Format: cell-based, human
Description: FIG. 27. Elafin inhibited ERK1/2 phosphorylation in intestinal fibroblasts via PAR2. (A) Serum starved CCD-18Co and primary stricturing CD patient-derived colonic fibroblasts were transiently transfected with either control siRNA or ZEB1 siRNA overnight, followed by treatment with 10 ng/ml TGF-β1 or 100 μg/ml stricturing CD patient-derived serum exosomes (CDSE) for 24 hours. (B) CCD-18Co fibroblasts were treated with DMSO, PAR1 inhibitor (SCH79797), or PAR2 inhibitor (GB88) for 2 hours. GB88 inhibited ERK1/2 phosphorylation. (C) CCD-18Co fibroblasts were pretreated with DMSO, PAR1 agonist, or PAR2 agonists for 30 minutes, followed by TGF-β1 10 ng/ml. Two hours later, elafin (1 μg/ml) and incubated for 2 hours. Elafin inhibited ERK1/2 phosphorylation, which was reversed by PAR2 agonist. […] Phospho-ERK1/2, ProCOL1A1, COL1A2, and ZEB1 protein were determined by ELISA. miR205-5p expression was determined by real-time RT-PCR. […]
FIG. 28. […] (D) Quantification of cathepsin S signals (B7-8) and control signals (A1-2 and E1-2) on the protease array using Bio-Rad Image Lab Software. […] Phospho-ERK1/2 was determined by ELISA. […] ProCOL1A1 and COL1A2 were determined by ELISA. […]

Elafin: small (6 kDa) human elastase-specific protease inhibitor and antimicrobial peptide; active form SEQ ID NO: 2 (AQEPVKGPVSTKPGSCPIILIRCAMLNPPNRCLKDTDCPGIKKCCEGSCGMACFVPQ; listed as Homo sapiens)
ERK1/2 phosphorylation (CCD-18Co fibroblasts): inhibited

SLIGKV-NH2 [PAR2 agonist, reference compound]
effect on elafin-mediated inhibition of ERK1/2 phosphorylation (elafin 1 μg/ml, 2 hours): reversed
